Reference: patent US9884812B2, “Use of DDX3X inhibitors for the treatment of pneumovirus infections” (priority 2014, dated 2018)
Converted amounts (≈) assume the structure as drawn. Like-named read-outs stand apart in the source and are kept apart here.

Legend:
[1] = Solubility in cell medium; type: physicochemical; settings: for Solubility in cell medium: solution of ligand in DMSO (20 mM) diluted in cell media to 100 μM, scale from 'very poor' (almost insoluble) to 'very good' (freely soluble over extended periods at 4° C.); for Solubility behaviour in cell medium: at 100 μM
HEp2 or BSC1 cells = assay: Toxicity to cells in the TCID50 screen (mock control); type: cell-based; settings: cellular RSV TCID50 assay tables
Protocol: This method provides a rapid approach to initially screen compounds and was developed as an increased number of compounds were synthesised. […] Virus was then added over 5 different half log dilutions starting at a multiplicity of infection of 0.02 plus mock control. Three dilutions of compound plus a DMSO control were screened per plate. […] Identical plate repeats for each compound dilution were fixed in subsequent days as indicated.

hRSV (strain A2) = assay: Plaque inhibition assay, hRSV; type: cell-based, human respiratory syncytial virus; settings: for Plaque size relative to DMSO control: hRSV plaque assay; for IC50: human respiratory syncytial virus, read-out: IC50 (plaque number vs DMSO control)
Protocol: Example: Plaque inhibition assay
(§1) An identical assay procedure was carried out for hRSV (strain A2) bovine RS (strain Snook) and PVM (strain 15). Virus stocks were diluted 10 fold in GMEM (Invitrogen) so that the wells containing cells received sufficient virus to generate approximately 2000, 200 and 20 plaques per well.
The overlay medium also contained the compound to be tested at appropriate concentrations. Typically the 6 concentrations of the test compounds used were: 100 μM, 31.6 μM, 10 μM, 3.16 μM, 1 μM and 0.316 μM.
Stocks of the test compounds were prepared in DMSO (Sigma) (carrier). Each stock compound was diluted 1 in 200 in overlay medium to give dilutions stated above.
(§2) Cells of a standard cell line known to support pneumovirus replication (typically HEp2 or BSC1 cells) were grown in standard 12 well plates at 37° C. in an atmosphere of 5% (v/v) CO2 until confluent. Medium was aspirated from the cells and replaced with 200 μl aliquots of virus. Aliquots were prepared by diluting virus stocks 10-fold in GMEM (Invitrogen) as described above with no FCS. A mock (no virus) was also set up to test cell viability. The virus was incubated with the cells for 1 hour at 33° C. with gentle rocking every 5-10 minutes. The inocula were removed and 2 ml of overlay medium was added. Overlay medium was either test (plus compound) or control (medium alone or medium containing DMSO). The plates were incubated at 33° C. for 4-8 days to allow plaques to develop as indicated. A volume of 1 ml of additional overlay medium (containing the test compound as appropriate) was added every 3 days. All virus dilutions were carried out with each concentration of test compound, or treated as controls, and each was carried out in triplicate.
(§3) Following incubation, cells were fixed by addition of an equal volume of 4% (v/v) glutaraldehyde (Sigma) in PBS with further incubation for a minimum of 2 hours. The fixing solution was washed off under a slow flowing stream of water and 1 ml of crystal violet (0.075% w/v: Sigma) was added and left for 20 minutes at room temperature. The crystal violet was removed and the fixed cell monolayers washed. Plates were air dried. Plaques counts were recorded from wells with >20 and <200 in number. These numbers provide the most robust statistical reliability for viable plaque counts.
This experimental approach screens the ability of compounds to block the formation of plaques.

Bovine RSV = assay: Plaque inhibition assay, bovine RSV; type: cell-based, bovine respiratory syncytial virus; settings: for IC50: bovine RSV, 6-day assay, HEp2 cells; for Plaque size: bRSV plaque assay
Protocol: as §1, §2, §3
(§4) Compounds 1, 4 and 6 were also tested against bovine RSV and pneumonia virus of mice (PVM).
The compounds were tested with a 6-day assay using HEp2 cells.

PVM (strain 15) = assay: Plaque inhibition assay, PVM; type: cell-based, pneumonia virus of mice; settings: for Plaque size: PVM plaque assay; for IC50: murine pneumonia virus, PVM, HEp2 cells
Protocol: as §1, §2, §3, §4
A full plaque assay was carried out for compound 4 using HEp2 cells, with assays of 5 days and 6 days after incubation.

HEp2 cells [2] = assay: MTT toxicity assay; type: cell-based; settings: for Appearance of cell monolayers: compared with carrier controls
Protocol: All experiments shown were carried out in HEp2 cells. Cells were grown in 96 well plates overnight as previously described in 10% FCS medium to 95% confluence level. The medium was aspirated off and replaced with 200ul media with 2% FCS +/− compounds in DMSO carrier as indicated at an identical dilution series to that used in the plaque assays. 8 wells were used per compound/carrier alone dilution. An additional 2 rows of 8 cells were grown in medium alone for reference and subsequently 8 would be used as a cell death control as described below. Cells were incubated at 33° C. as indicated. If the incubation period exceeded 4 days the medium was replaced with the appropriate amount of fresh medium plus compound.
MTT assays were commenced 4 hours before the time period expired. Here 20 uL of MTT [(3-{4,5-dimethylthiazol-2-yl}-2,5-diphenyltetrazolium bromide)] solution (7.5 mg/ml in
PBS) was added. […] The cells were placed back in the incubator at 33° C. After 4 hours, 100 μL of a stop solution (50% formamide, 20% w/v SDS) was added and pipetted to dissolve the substrate. Plates were then left overnight to allow the bubbles to disappear and the OD was recorded at 595 nm. Following subtraction of background solution colour (cell death control), the optical density was expressed as a percentage compared to the DMSO control on each appropriate plate.

HEp2 cells [3] = assay: Toxicity observed in plaque assay, HEp2 cells; type: cell-based
Protocol: as §2

BSC1 cells = assay: Toxicity observed in plaque assay, BSC1 cells; type: cell-based; settings: at 100 μM
Protocol: as §2

RSV = assay: 96 well plate TCID50 (cellular RSV TCID50 assay); type: cell-based; settings: for Activity: summary of activities in cellular RSV TCID50 assay, symbols − to +++++ not defined
Protocol: This method provides a rapid approach to initially screen compounds and was developed as an increased number of compounds were synthesised. Cells of a standard cell line known to support pneumovirus replication (typically HEp2 or BSC1 cells) were grown to 95% confluence in a 96 well plate. Virus was then added over 5 different half log dilutions starting at a multiplicity of infection of 0.02 plus mock control. Three dilutions of compound plus a DMSO control were screened per plate. […] Identical plate repeats for each compound dilution were fixed in subsequent days as indicated.
Stained plates were read at 595 nm, higher optical density (OD) readings indicate more viable cells remain.

[4] = HEp-2, 120 h, hRSV, HEp2 cells, Day 5
[5] = Bovine orthopneumovirus, HEp-2, 144 h, read-out: IC50

SMILES	Solubility in cell medium [1]	Toxicity (HEp2 or BSC1 cells)	Plaque size relative to DMSO control (hRSV (strain A2))	IC50 (hRSV (strain A2); [4]) [µM]	Plaque size (Bovine RSV)	Plaque size (PVM (strain 15))	Appearance of cell monolayers (HEp2 cells [2])	Solubility behaviour in cell medium [1]	Activity (RSV)	other results
CSc1cccc(NC(=O)Nc2ccccc2C)c1 [Compound 4, 1-(2-methylphenyl)-3-[3-(methylsulfanyl)phenyl]urea]	good	some toxicity at 100 μM	significantly reduce the size of plaques	4.1	significantly reduce the size of plaques	significantly reduce the size of plaques	appeared intact			IC50 (hRSV (strain A2); HEp-2, 144 h, hRSV, HEp2 cells, Day 6): 8.5 µM; IC50 (hRSV (strain A2); HEp-2, 168 h, hRSV, HEp2 cells, Day 7): 15 µM; IC50 (Bovine RSV; [5]): 80 µM; IC50 (PVM (strain 15); HEp-2, 120 h, day 5): 32 µM; IC50 (PVM (strain 15); HEp-2, 144 h, day 6): 100 µM; Toxicity in plaque assay (HEp2 cells [3]; at 10 μM): No obvious toxicity; Toxicity in plaque assay (HEp2 cells [3]; at 31.6 μM): to some degree; Toxicity in plaque assay (HEp2 cells [3]; at 100 μM): showed toxicity
Cc1ccccc1NC(=O)Nc1cccc(Cl)c1 [Compound 39, 1-(3-chlorophenyl)-3-(o-tolyl)urea]	Moderate at 100 μM	Some toxicity at 100 μM	reduction in plaque numbers (as shown) and size					moderately soluble		IC50 (hRSV (strain A2); BSC-1, 96 h, hRSV, BSC1 cells, 4 day assay): 16.5 µM; Toxicity in plaque assay (BSC1 cells): some toxicity
CSc1cccc(NC(=O)NCCCOCCOCCOCCCNC(=O)Nc2cccc(SC)c2)c1 [Compound 36, 1-[3-(methylsulfanyl)phenyl]-3-[3-(2-{2-[3-({[3-(methylsulfanyl)-phenyl]carbamoyl}amino)propoxy]ethoxy}ethoxy)propyl]urea]	good									melting point: 106 to 108 °C
Cc1ccccc1NC(=O)Nc1ccc(SC(F)(F)F)cc1 [Compound 42, 1-(o-tolyl)-3-(4-((trifluoromethyl)thio)phenyl)urea]	Good	Very toxic at 100 μM							Plaques reduced	
Cc1ccccc1NC(=O)Nc1cccc(C(F)(F)F)c1 [Compound 40, 1-(o-tolyl)-3-(3-(trifluoromethyl)phenyl)urea]	Good	Low								Inhibition of plaque formation (hRSV (strain A2); hRSV, BSC1 cells, 4 day assay): moderate inhibition; Toxicity in plaque assay (BSC1 cells): low toxicity
Cc1ccccc1NC(=O)Nc1cccc([N+](=O)[O-])c1 [Compound 1, 3-(2-methylphenyl)-1-(3-nitrophenyl)urea]	poor	toxic at 32 μM	significantly reduce the size of plaques		significantly reduce the size of plaques	significantly reduce the size of plaques		appearance of insolublity		Activity in the TCID50 assay at higher concentration (RSV; at >10 μM): no increase in activity; solubility ([1]; cell medium, aqueous buffer, kinetic from dmso stock, read-out: Upper limit of soluble concentration): 5 to 10 µM (≈ 1.36 to 2.71 µg/mL); Plaque size relative to DMSO control (hRSV (strain A2); listed as compound 1): smaller than in the DMSO control; IC50 (Bovine RSV): precipitated out before 50% reduction was seen; Sensitivity in MTT assay (HEp2 cells [2]; days 3 and 4, disappeared after 5 days): increased sensitivity; Concentration above which inhibition of activity is seen (MTT) (HEp2 cells [2]; over the time course): above 10 μM
Cc1ccccc1NC(=O)Nc1ccc(OC(F)(F)F)cc1 [Compound 43, 1-(o-tolyl)-3-(4-(trifluoromethoxy)phenyl)urea]	Good	Toxic at 100 μM							Plaques reduced	
CSc1ccc(NC(=O)NCCCOCCOCCOCCCNC(=O)Nc2ccc(SC)cc2)cc1 [Compound 37, 1-[4-(methylsulfanyl)phenyl]-3-[3-(2-{2-[3-({[4-(methylsulfanyl)-phenyl]carbamoyl}amino)propoxy]ethoxy}ethoxy)propyl]urea]	good	toxic at 50 μM		17.5			appeared intact	some signs of precipitating out of solution		Toxicity in plaque assay (HEp2 cells [3]; at 100 μM): showed toxicity
Cc1ccccc1NC(=O)Nc1ccc(C#N)cc1 [Compound 6, 1-(4-cyanophenyl)-3-(2-methylphenyl)urea]	good	low	significantly reduce the size of plaques	10	significantly reduce the size of plaques	significantly reduce the size of plaques	appeared intact			IC50 (plaque number vs DMSO control) (hRSV (strain A2); hRSV, HEp2 cells, Day 6): 50% reduction was not reached; IC50 (plaque number vs DMSO control) (hRSV (strain A2); hRSV, HEp2 cells, Day 7): 50% reduction was not reached; IC50 (Bovine RSV; [5]): 15 µM
Cc1ccccc1NC(=O)Nc1ccc(I)cc1 [Compound 44, 1-(4-iodophenyl)-3-(o-tolyl)urea]	Moderate at 100 μM	Low							Inactive	
